This passage reports viability results from article PMC7822874, “Chemoprotective antimalarials identified through quantitative high-throughput screening of Plasmodium blood and liver stage parasites” (Scientific Reports, 2021).

The first data set is described as follows: in vitro. Particulars: human, hepg2-a16-cd81egfp cells.
As a reminder, the viability is a read-out of living cells in per cent, often relative to untreated cells. For `C[n+]1c2ccccc2nc2ccc(NCCO)cc21.[O-][Cl+3]([O-])([O-])[O-]` [MLS001164888], the viability at 3 µM is 97.2%.

Still in this data set, the particulars now being: human, hepg2-a16-cd81egfp cells, % viability.
`CCNc1nc(C#N)nc2c1ncn2-c1cc(F)cc(F)c1` [MLS002471787]: the viability at 3 µM came to 99.9%. As for `CCOC(=O)c1c(NC(=O)C[n+]2ccc(N(C)C)cc2)sc(C)c1C` [MLS000710762], the viability at 3 µM worked out at 65.1%. The same measure, in the same setting: to `COc1ccc2nc(C)cc(NCc3cccc(C(F)(F)F)c3)c2c1` [MLS001174340] belongs 95.4%. Same read-out and setting: to `N#Cc1nc(Nc2cc(F)cc(F)c2)c2ncn(CC(F)F)c2n1` [MLS002471784] belongs 90%. Same read-out and setting: to `C/C(=N\NC(=O)c1ccccc1OCc1ccc(F)cc1)c1ccccn1` [MLS002162875] belongs 82%; to `CC(=O)N(C)C1=C(N2CCOCC2)C(=O)c2ccccc2C1=O` [MLS000570886], 96.1%. Regarding `COc1ccccc1CNC(=O)CCn1c(=O)[nH]c2ccsc2c1=O` [MLS000044764], the viability at 3 µM was found to be 109%. The same measure, in the same setting: with `Cc1cc(C)c(C)c(S(=O)(=O)NCc2ccc(C(=O)N3CCCCC3)cc2)c1C` [MLS000547926] the figure was 90.2%; with `Cc1cc(Nc2ccc(C(C)C)cc2)n2ncnc2n1` [MLS000116597], 96.1%; with `CCOc1ccc2c(c1)OC(c1ccc(C)cc1)(C(F)(F)F)NC2=O` (stereo not shown) [MLS000392832], 63.5%.

Turning to `Oc1ccccc1Nc1nc(NCc2ccccc2)c2ccccc2n1` [MLS000693415], the viability at 3 µM was determined as 90.9%. Still for that read-out and setting: with `COc1cccc(NC(=O)CN(C)C(=O)c2ccc(-c3cccc(C(F)(F)F)c3)o2)c1` [MLS001071804] the figure was 90.3%; with `CCc1nc(N)nc(N)c1-c1ccc(Cl)cc1` [NCGC00023188], 95.9%.

Turning to `O=C(CCl)Nc1cccc(-c2cnc3ccccc3n2)c1` [MLS000541295], the viability at 3 µM is 88.6%. The same measure, in the same setting: to `COc1cc2nc(Nc3cccc(F)c3)nc(N)c2cc1OC` [NCGC00107351] belongs 101%; to `COc1cccc(NC(=O)CN(C)C(=O)c2oc3c(ccc4ccccc43)c2C)c1` [MLS001142056], 101%. The same measure, in the same setting: with `Clc1ccc(NNc2ccnc3cc(Cl)ccc23)cc1` [MLS000537447] the figure was 90.3%; with `O=C(Nc1ccc2c(N3CCOCC3)ncnc2c1)c1cccc(Br)c1` [NCGC00425561], 49.3%; with `Cc1ccccc1C1C(C#N)=C2N=C(N)c3c(sc4c3CCCCC4)N2C2=C1C(=O)CCC2` (stereo not shown) [MLS000543544], 92.6%. Same read-out and setting: with `CC(C)(C)CC(C)(C)c1ccc(O)c(Cc2ccc(Cl)cc2Cl)c1` [NCGC00095016] the figure was 93.1%; with `O=[N+]([O-])c1ccc(N2CCN(/C(S)=N/C3CCCCC3)CC2)cc1` [MLS000574247], 99.2%. For `CCCCc1cc(=O)oc2cc(C)cc(OCC(=O)Nc3cccnc3)c12` [MLS001160046], the viability at 3 µM was determined as 96.3%. Still for that read-out and setting: to `O=C(Nc1cccnc1)c1cn(-c2ccccc2)nc1-c1cccs1` [MLS000081870] belongs 100%. Same read-out and setting: with `Cc1ccc(O)c(-c2cc(C(=O)Nc3ccc(S(=O)(=O)N4CC(C)OC(C)C4)cc3)n[nH]2)c1` (stereo not shown) [MLS000042695] the figure was 87.1%; with `Cc1ccc(S(=O)(=O)N2CCN(/C(S)=N/Cc3ccc4c(c3)OCO4)CC2)cc1` [MLS001002637], 97.3%; with `COc1cc2nc(Nc3ccc(F)cc3)nc(N)c2cc1OC` [NCGC00107353], 92.7%. The same measure, in the same setting: to `O=C(c1cc(C(=O)NCCc2ccccc2)c(=O)n(CCc2ccccc2)c1)c1cc(Cl)ccc1O` [MLS000402354] belongs 100%; to `CN1CCN(c2ccc(NC(=O)c3ccc(-c4cccc([N+](=O)[O-])c4)o3)cc2)CC1` [MLS000663772], 107%. As for `CC(=O)Nc1ccc(Nc2cc(C)nc(Nc3ccc(NC(C)=O)cc3)n2)cc1` [MLS001359830], the viability at 3 µM is 93.2%.

Take `CCC(=O)Nc1cc(=O)[nH]c2nc(-c3ccc(Cl)cc3)nn12` [MLS000779210]: the viability at 3 µM is 92%. Still for that read-out and setting: to `Oc1cc(/C=C/c2c(F)cccc2Cl)nc2ccccc12` [MLS000862522] belongs 102%; to `CCC(=O)N1CCc2cc(Br)cc(S(=O)(=O)N3CCCCC3CC)c21` (stereo not shown) [MLS000936752], 90.3%. Same read-out and setting: with `CC[C@@]1(c2ccccc2OC)ON(c2ccccc2C(F)(F)F)C1=O` [MLS002206609] the figure was 92.6%; with `CC(Oc1ccc(F)cc1)C(=O)Nc1cc(C(F)(F)F)ccc1-n1cncn1` (stereo not shown) [MLS001160637], 101%; with `CC1CCN(c2ccc(C(=O)NCc3ccco3)cc2[N+](=O)[O-])CC1` [MLS000389854], 91.2%. Still for that read-out and setting: with `CC1=C[C@@H](CNCc2cccnc2)[C@H](C(C)C)C[C@H]1Cc1nnc(-c2ccc([N+](=O)[O-])cc2)o1` [NCGC00394797] the figure was 91.7%.

Regarding `COc1cccc(-c2c(C#N)c(N)nc3c2c(C)nn3-c2ccccc2)c1O` [MLS001214341], the viability at 3 µM was determined as 90.5%. Still for that read-out and setting: with `CCCCCCSc1ccc([C@H]2N[C@@](Cc3ccccc3)(C(=O)OC)[C@H]3C(=O)N(CC)C(=O)[C@@H]23)cc1` [MLS001362744] the figure was 91.8%; with `Cc1ccc(-c2cc(C(F)(F)F)n3ncc(C(=O)N4CCCCC4c4cccnc4)c3n2)cc1` (stereo not shown) [MLS000729132], 89.9%. Consider `Cc1ccc(Nc2cc(C)nc(NCc3ccccc3)n2)cc1` [MLS000574704], for which the viability at 3 µM worked out at 80.6%. Same read-out and setting: to `CCOc1ccc(C(C)NC(S)=NC2CCCCC2)cc1OCC` (stereo not shown) [MLS001007596] belongs 95.1%. As for `COc1cc2nc(Nc3ccc(C)c(C)c3)nc(N)c2cc1OC` [MLS001199689], the viability at 3 µM amounted to 102%. Take `Cc1ccc(Cl)cc1NC(=O)c1cc2ccccc2cc1O` [MLS000738149]: the viability at 3 µM is 74%.

As for `O=C(NC(c1ccccc1)c1cc(Cl)c2cccnc2c1O)c1cccnc1` (stereo not shown) [MLS000573359], the viability at 3 µM is 69.7%. Still for that read-out and setting: with `O=C(CCc1ccccc1)NC(c1cccs1)c1cc(Cl)c2cccnc2c1O` (stereo not shown) [MLS000703748] the figure was 54%; with `Cc1ccc(C(=O)Nc2nc(-c3ccccn3)cs2)cc1S(=O)(=O)N1CCOCC1` [MLS002157637], 58.9%; with `COc1cc2ccccc2cc1C(=O)N1CCCC(C(F)(F)F)C1` (stereo not shown) [MLS002180647], 86%. As for `Cc1cc(Nc2ccc(Br)c(C)c2)n2nc(C)nc2n1` [MLS000116638], the viability at 3 µM was determined as 87.3%. The same measure, in the same setting: with `Clc1ccc2c(N/N=C/c3cccc(Br)c3)ccnc2c1` [MLS000336198] the figure was 87.2%; with `CN1C2CCC1/C(=C/c1ccccn1)C(=O)/C2=C\c1ccccn1` [MLS000702810], 83%; with `Cc1cc(N2CCC(C)CC2)nc(-n2nc(C)cc2C)n1` [MLS000109839], 98.6%. As to `Cc1cc(C)n(-c2nc(NC(C)(C)C)nc(NC(C)(C)C)n2)n1` [MLS000109787], the viability at 3 µM stood at 106%. Turning to `O=C(Nc1ccc(C2=NCCN2)cc1)c1ccc(C(=O)Nc2ccc(C3=NCCN3)cc2)c(Cl)c1` [MLS000737368], the viability at 3 µM amounted to 90%. Still for that read-out and setting: to `CC(C(=O)N1CCCC1)N1CCN(S(=O)(=O)c2ccc(C(C)(C)C)cc2)CC1` (stereo not shown) [MLS002156464] belongs 92.8%; to `O=C(NC1=C(Nc2ccc(Cl)cc2)C(=O)c2ccccc2C1=O)c1ccccc1` [MLS000375030], 97.1%. On to `COc1cc(NS(C)(=O)=O)ccc1Nc1c2ccccc2nc2ccccc12` [MLS002153376], for which the viability at 3 µM was determined as 84.3%.

In the case of `Oc1ccc(CN2CCCCC2)nc1-c1ccccc1` [MLS000031925], the viability at 3 µM was 99.7%. The same measure, in the same setting: to `Oc1c(CN2CCN(c3ccccn3)CC2)cc(Cl)c2cccnc12` [NCGC00055619] belongs 77.4%; to `Cc1ccc(Sc2ccc(NC(=O)CCl)cc2)cc1C` [MLS000334846], 93.9%; to `Cc1nnsc1[S+]([O-])c1ccc(Cl)cc1` (stereo not shown) [MLS001166465], 96.9%.

`COc1ccccc1[C@@]1(C)ON(c2ccccc2C(F)(F)F)C1=O` [MLS002206613]: the viability at 3 µM worked out at 88.4%. Same read-out and setting: to `CCOC(=O)c1c(CN(C)C)oc2cc(CN(C)C)c(O)c(CSc3ccccc3)c12` [MLS000038262] belongs 104%; to `COc1cccc(C2C3=C(N=c4sc(=Cc5ccccc5O)c(=O)n42)c2ccccc2CC3)c1OC` (stereo not shown) [MLS000580951], 92.9%. Still for that read-out and setting: to `CCCCOc1ccc(NC2=NC(N)=NC3(CCCCC3)N2)cc1` [MLS000109806] belongs 88.4%; to `CCN(CC)CCCN(c1ccccc1)C1Cc2ccccc2C1` [NCGC00167576], 99.6%; to `O[C@@H]1[C@@H](O)C=C2CCN3Cc4cc5c(cc4[C@H]1C23)OCO5` (stereo partly shown) [MLS002153955], 77.4%. The same measure, in the same setting: to `CN(C)c1nc(-c2ccccn2)nnc1-c1ccccc1` [MLS000541553] belongs 86.2%; to `CCCCCCCc1c(C)[nH]c(N2CCOCC2)nc1=O` [MLS000531187], 90.5%. As to `Cc1ccc(Nc2cc(C)c3ccc(O)cc3n2)cc1C` [MLS000674791], the viability at 3 µM worked out at 92.2%. Still for that read-out and setting: to `Cc1ccc(-c2cc(C(=O)Nc3ccc(S(=O)(=O)N4CC(C)OC(C)C4)cc3)[nH]n2)c(O)c1` (stereo not shown) [MLS000779230] belongs 89.2%.

`C=C[C@]1(C)C[C@@H](OC(=O)CSC(C)(C)CNC(=O)[C@H](N)C(C)C)[C@]2(C)[C@H](C)CC[C@]3(CCC(=O)[C@H]32)[C@@H](C)[C@@H]1O` [NCGC00167968]: the viability at 3 µM stood at 87.5%. Still for that read-out and setting: with `Oc1c(C(Nc2nccs2)c2ccc(C(F)(F)F)cc2)ccc2cccnc12` (stereo not shown) [MLS000774842] the figure was 43.8%; with `COc1ccc(Nc2cc(O)c3ncccc3c2)cc1` [NCGC00183797], 69%. Still for that read-out and setting: to `c1ccc(-c2cccc(-c3ccccn3)n2)nc1` [MLS000048666] belongs 19.2%; to `CC(C)c1ccccc1OCC(O)CN(CC(O)COc1cccc2ccccc12)C(C)C` (stereo not shown) [MLS001179995], 100%.
